SMILES strings stand for the structures.

From US12534452B2, “N-(1H-imidazol-2-yl)benzamide compound and pharmaceutical composition comprising the same as active ingredient” (KAINOS MEDICINE, INC., priority 2019, dated 2026) come the findings set out here.

The target in this assay is IRAK4 (Homo sapiens (Human), UniProt Q9NWZ3). Description: In vitro IRAK4 phosphorylation activity assay. In kind it is biochemical. Particulars: [γ-33P]-ATP, myelin basic protein substrate, 40 minutes at room temperature; categories. In short, it runs like this: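 Radiometric filter-binding assay, no compound–kinase preincubation; 8 mM MOPS pH 7.0, 0.2 mM EDTA, 10 mM Mg acetate, 0.33 mg/mL myelin basic protein substrate, [γ-33P]-ATP. Reaction 40 min at room temperature, stopped with phosphoric acid, scintillation counting; IC50 reported in categories.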
Sequence of IRAK4 (Q9NWZ3 whole entry): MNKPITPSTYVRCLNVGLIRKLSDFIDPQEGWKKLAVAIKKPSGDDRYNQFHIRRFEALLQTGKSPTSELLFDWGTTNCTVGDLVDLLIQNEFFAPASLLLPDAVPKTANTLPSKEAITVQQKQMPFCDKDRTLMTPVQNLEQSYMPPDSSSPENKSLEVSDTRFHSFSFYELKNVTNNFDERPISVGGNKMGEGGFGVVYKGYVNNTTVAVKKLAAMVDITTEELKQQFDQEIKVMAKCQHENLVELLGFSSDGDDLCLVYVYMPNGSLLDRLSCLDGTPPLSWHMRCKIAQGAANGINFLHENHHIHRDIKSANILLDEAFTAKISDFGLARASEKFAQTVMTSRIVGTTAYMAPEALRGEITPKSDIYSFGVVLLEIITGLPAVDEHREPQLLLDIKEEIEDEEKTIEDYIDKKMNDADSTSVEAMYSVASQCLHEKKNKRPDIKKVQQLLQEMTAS
The term IC50 denotes the concentration that gives 50% inhibition. High values mean lower potency, low ones higher potency. The molecule `Cn1ncc2cc(-c3cccc(C(=O)Nc4nc(CCCCCCN5CCCCC5)cn4-c4ccccc4)c3)ccc21` [Example 263, 3-(1-methyl-1H-indazol-5-yl)-N-(1-phenyl-4-(6-(piperidin-1-yl)hexyl)-1H-imidazol-2-yl)benzamide] had an IC50 of 50 to 100 nM.

Take `Cn1ncc2cc(-c3cccc(C(=O)Nc4nc(CCCCCCN5CCOCC5)cn4-c4ccccc4)c3)ccc21` [Example 264, 3-(1-methyl-1H-indazol-5-yl)-N-(4-(6-morpholinohexyl)-1-phenyl-1H-imidazol-2-yl)benzamide]: the IC50 is > 100 nM.

Consider `CNC(=O)Cc1cn(-c2ccccc2)c(NC(=O)c2cccc(-c3ccncc3)c2)n1` [Example 265, N-(4-(2-(methylamino)-2-oxoethyl)-1-phenyl-1H-imidazol-2-yl)-3-(pyridin-4-yl)benzamide], for which the IC50 is > 100 nM.

On to `CNC(=O)CCCc1cn(-c2ccccc2)c(NC(=O)c2cccc(-c3ccncc3)c2)n1` [Example 266, N-(4-(4-(methylamino)-4-oxobutyl)-1-phenyl-1H-imidazol-2-yl)-3-(pyridin-4-yl)benzamide], for which the IC50 is < 50 nM.

Consider `O=C(CCCc1cn(-c2ccccc2)c(NC(=O)c2cccc(-c3ccncc3)c2)n1)NC1CC1` [Example 267, N-(4-(4-(cyclopropylamino)-4-oxobutyl)-1-phenyl-1H-imidazol-2-yl)-3-(pyridin-4-yl)benzamide], for which the IC50 was < 50 nM.

Turning to `O=C(Nc1nc(CCCCCCN2CCCCC2)cn1-c1ccccc1)c1cccc(-c2ccncc2)c1` [Example 268, N-(1-phenyl-4-(6-(piperidin-1-yl)hexyl)-1H-imidazol-2-yl)-3-(pyridin-4-yl)benzamide], the 50% inhibitory concentration (IC50) fell in the range of 50 to 100 nM.

Turning to `O=C(Nc1nc(CCCCCCN2CCCCC2)cn1-c1ccccc1)c1cccc(-c2ccccn2)c1` [Example 269, N-(1-phenyl-4-(6-(piperidin-1-yl)hexyl)-1H-imidazol-2-yl)-3-(pyridin-2-yl)benzamide], the 50% inhibitory concentration (IC50) is > 100 nM.

Take `O=C(Nc1nc(CCCCCCN2CCCCC2)cn1-c1ccccc1)c1cccc(-c2cccnc2)c1` [Example 270, N-(1-phenyl-4-(6-(piperidin-1-yl)hexyl)-1H-imidazol-2-yl)-3-(pyridin-3-yl)benzamide]: the IC50 is < 50 nM.

As for `Nc1ccc(-c2cccc(C(=O)Nc3nc(CCCCCC(=O)N4CCCCC4)cn3-c3ccccc3)c2)cn1` [Example 271, 3-(6-aminopyridin-3-yl)-N-(4-(6-oxo-6-(piperidin-1-yl)hexyl)-1-phenyl-1H-imidazol-2-yl)benzamide], the half-maximal inhibitory concentration (IC50) was < 50 nM.

`CN1CCN(C(=O)CCCCCc2cn(-c3ccccc3)c(NC(=O)c3cccc(-c4ccc(N)nc4)c3)n2)CC1` [Example 272, 3-(6-aminopyridin-3-yl)-N-(4-(6-(4-methylpiperazin-1-yl)-6-oxohexyl)-1-phenyl-1H-imidazol-2-yl)benzamide]: the IC50 was < 50 nM.

With `Nc1ccc(-c2cccc(C(=O)Nc3nc(CCCC(=O)N4CCCCC4)cn3-c3ccccc3)c2)cn1` [Example 273, 3-(6-aminopyridin-3-yl)-N-(4-(4-oxo-4-(piperidin-1-yl)butyl)-1-phenyl-1H-imidazol-2-yl)benzamide], the concentration for half-maximal inhibition (IC50) is < 50 nM.

As to `CN1CCN(C(=O)CCCc2cn(-c3ccccc3)c(NC(=O)c3cccc(-c4ccc(N)nc4)c3)n2)CC1` [Example 274, 3-(6-aminopyridin-3-yl)-N-(4-(4-(4-methylpiperazin-1-yl)-4-oxobutyl)-1-phenyl-1H-imidazol-2-yl)benzamide], the IC50 is < 50 nM.

In the case of `Nc1ccc(-c2cccc(C(=O)Nc3nc(CCCCCCN4CCCCC4)cn3-c3ccccc3)c2)cn1` [Example 275, 3-(6-aminopyridin-3-yl)-N-(1-phenyl-4-(6-(piperidin-1-yl)hexyl)-1H-imidazol-2-yl)benzamide], the IC50 is < 50 nM.

`Nc1ccc(-c2cccc(C(=O)Nc3nc(CCCCCCN4CCCC4=O)cn3-c3ccccc3)c2)cn1` [Example 276, 3-(6-aminopyridin-3-yl)-N-(4-(6-(2-oxopyrrolidin-1-yl)hexyl)-1-phenyl-1H-imidazol-2-yl)benzamide]: the IC50 is < 50 nM.

As for `Nc1ccc(-c2cccc(C(=O)Nc3nc(CCCCN4CCCC4=O)cn3-c3ccccc3)c2)cn1` [Example 277, 3-(6-aminopyridin-3-yl)-N-(4-(4-(2-oxopyrrolidin-1-yl)butyl)-1-phenyl-1H-imidazol-2-yl)benzamide], the IC50 is < 50 nM.

Consider `Nc1ccc(-c2cccc(C(=O)Nc3nc(CCCCCCNC(=O)C4CC4)cn3-c3ccccc3)c2)cn1` [Example 278, 3-(6-aminopyridin-3-yl)-N-(4-(6-(cyclopropanecarboxamido)hexyl)-1-phenyl-1H-imidazol-2-yl)benzamide], for which the IC50 was < 50 nM.

As to `O=C(CCCc1cn(-c2ccccc2)c(NC(=O)c2cccc(-c3ccc4ncsc4c3)c2)n1)NC1CC1` [Example 279, 3-(benzo[d]thiazol-6-yl)-N-(4-(4-(cyclopropylamino)-4-oxobutyl)-1-phenyl-1H-imidazol-2-yl)benzamide], the concentration for half-maximal inhibition (IC50) is < 50 nM.

Take `CN1CCN(C(=O)CCCc2cn(-c3ccccc3)c(NC(=O)c3cccc(-c4ccc5ncsc5c4)c3)n2)CC1` [Example 280, 3-(benzo[d]thiazol-6-yl)-N-(4-(4-(4-methylpiperazin-1-yl)-4-oxobutyl)-1-phenyl-1H-imidazol-2-yl)benzamide]: the IC50 was < 50 nM.

Take `CN(C)C1CCN(C(=O)CCCc2cn(-c3ccccc3)c(NC(=O)c3cccc(-c4ccc5ncsc5c4)c3)n2)CC1` [Example 281, 3-(benzo[d]thiazol-6-yl)-N-(4-(4-(4-(dimethylamino)piperidin-1-yl)-4-oxobutyl)-1-phenyl-1H-imidazol-2-yl)benzamide]: the IC50 is < 50 nM.

Consider `CN(C)C1CCN(C(=O)CCCc2cn(-c3ccccc3)c(NC(=O)c3cccc(-c4ccc5scnc5c4)c3)n2)CC1` [Example 282, 3-(benzo[d]thiazol-5-yl)-N-(4-(4-(4-(dimethylamino)piperidin-1-yl)-4-oxobutyl)-1-phenyl-1H-imidazol-2-yl)benzamide], for which the IC50 is > 100 nM.

As for `O=C(CCCc1cn(-c2ccccc2)c(NC(=O)c2cccc(-c3ccc4scnc4c3)c2)n1)NC1CC1` [Example 283, 3-(benzo[d]thiazol-5-yl)-N-(4-(4-(cyclopropylamino)-4-oxobutyl)-1-phenyl-1H-imidazol-2-yl)benzamide], the IC50 is > 100 nM.

For `CN1CCN(C(=O)CCCc2cn(-c3ccccc3)c(NC(=O)c3cccc(-c4ccc5scnc5c4)c3)n2)CC1` [Example 284, 3-(benzo[d]thiazol-5-yl)-N-(4-(4-(4-methylpiperazin-1-yl)-4-oxobutyl)-1-phenyl-1H-imidazol-2-yl)benzamide], the half-inhibitory concentration (IC50) is > 100 nM.

With `CN1CCN(C(=O)CCCCCc2cn(-c3ccccc3)c(NC(=O)c3cccc(-c4ccc5ncsc5c4)c3)n2)CC1` [Example 285, 3-(benzo[d]thiazol-6-yl)-N-(4-(6-(4-methylpiperazin-1-yl)-6-oxohexyl)-1-phenyl-1H-imidazol-2-yl)benzamide], the half-maximal inhibitory concentration (IC50) was < 50 nM.

`O=C(CCCCCc1cn(-c2ccccc2)c(NC(=O)c2cccc(-c3ccc4ncsc4c3)c2)n1)NC1CC1` [Example 286, 3-(benzo[d]thiazol-6-yl)-N-(4-(6-(cyclopropylamino)-6-oxohexyl)-1-phenyl-1H-imidazol-2-yl)benzamide]: the IC50 was < 50 nM.

On to `CN(C)C1CCN(C(=O)CCCCCc2cn(-c3ccccc3)c(NC(=O)c3cccc(-c4ccc5ncsc5c4)c3)n2)CC1` [Example 287, 3-(benzo[d]thiazol-6-yl)-N-(4-(6-(4-(dimethylamino)piperidin-1-yl)-6-oxohexyl)-1-phenyl-1H-imidazol-2-yl)benzamide], for which the IC50 was < 50 nM.

Take `CN1CCN(C(=O)CCCCCc2cn(-c3ccccc3)c(NC(=O)c3cccc(-c4ccc5scnc5c4)c3)n2)CC1` [Example 288, 3-(benzo[d]thiazol-5-yl)-N-(4-(6-(4-methylpiperazin-1-yl)-6-oxohexyl)-1-phenyl-1H-imidazol-2-yl)benzamide]: the IC50 was > 100 nM.

With `O=C(Nc1nc(CCCCCC(=O)N2CCCCCC2)cn1-c1ccccc1)c1cccc(-c2ccc3scnc3c2)c1` [Example 289, N-(4-(6-(azepan-1-yl)-6-oxohexyl)-1-phenyl-1H-imidazol-2-yl)-3-(benzo[d]thiazol-5-yl)benzamide], the IC50 is > 100 nM.

As for `O=C(CCCCCc1cn(-c2ccccc2)c(NC(=O)c2cccc(-c3ccc4scnc4c3)c2)n1)NC1CC1` [Example 290, 3-(benzo[d]thiazol-5-yl)-N-(4-(6-(cyclopropylamino)-6-oxohexyl)-1-phenyl-1H-imidazol-2-yl)benzamide], the concentration for half-maximal inhibition (IC50) is > 100 nM.

For `CN(C)C1CCN(C(=O)CCCCCc2cn(-c3ccccc3)c(NC(=O)c3cccc(-c4ccc5scnc5c4)c3)n2)CC1` [Example 291, 3-(benzo[d]thiazol-5-yl)-N-(4-(6-(4-(dimethylamino)piperidin-1-yl)-6-oxohexyl)-1-phenyl-1H-imidazol-2-yl)benzamide], the IC50 is > 100 nM.

In the case of `O=C(CCc1cn(Cc2ccccc2)c(NC(=O)c2cccc(-c3cn[nH]c3)c2)n1)Nc1ccccc1` [Example 292, N-(1-benzyl-4-(3-oxo-3-(phenylamino)propyl)-1H-imidazol-2-yl)-3-(1H-pyrazol-4-yl)benzamide], the IC50 is > 100 nM.

On to `O=C(CCc1cn(-c2cccc(Cl)c2)c(NC(=O)c2cccc(-c3cn[nH]c3)c2)n1)Nc1ccccc1` [Example 293, N-(1-(3-chlorophenyl)-4-(3-oxo-3-(phenylamino)propyl)-1H-imidazol-2-yl)-3-(1H-pyrazol-4-yl)benzamide], for which the IC50 was < 50 nM.

`O=C(CCc1cn(-c2cccc(Br)c2)c(NC(=O)c2cccc(-c3cn[nH]c3)c2)n1)Nc1ccccc1` [Example 294, N-(1-(3-bromophenyl)-4-(3-oxo-3-(phenylamino)propyl)-1H-imidazol-2-yl)-3-(1H-pyrazol-4-yl)benzamide] yielded an IC50 of 50 to 100 nM.
